Columns and labels:
TSPYL5 gene [1] = assay: RT-PCR of TSPYL5 expression level after siRNA transduction, A549; type: cell-based, human; conditions: A549 cells, 40~80 nM RNAi, compared to siControl
Description: (§1) In order to compare the expression levels of TSPYL5 in lung cancer cell lines A549, H460, and H1299, reverse transcription polymerase chain reaction (RT-PCR) was performed. The RT-PCR was performed in the following manner: a mixture of 10 mM dNTPs, 5×RT buffer, 0.5 μg/μl oligo dT, addition of each of 4 μg of heat denaturated (70° C., 10 min) total RNA of lung cancer cell lines H460, A549, and H1299, and 200 U/μl M-MLV RTase, 0.02% diethyl pyrocarbonate (DEPC)-treated sterilized water to a final volume of 20 μl, followed by reaction at 45° C. for 30 min. Next, the mixture was heated to 94° C. for 5 min, and then snap-cooled on ice to deactivate the M-MLV RTase. 1 μl of the cDNA synthesized by the method was mixed with 10× buffer (MgCl2 free), 2.5 mM dNTPs, 10× MgCl2, and Taq DNA polymerase. 10 pmol of primer for TSPYL5 or β-actin was added to the mixture and amplified under the following conditions. Then, for TSPYL5 primer, EcoRI/Forward: 5′-[…]-3′ represented by SEQ ID No: 3 as a forward primer and EcoRI/reverse: 5′-CCGGAATTCTC AGTTGGATTGGCTCACCCC-3′ represented by SEQ ID NO: 4 as a reverse primer were used. Pre-denaturation at 94° C. for 5 min, denaturation at 94° C. for 1 min, annealing at 60° C. for 1.5 min, cycles of elongation at 72° C. for 1 min were performed, followed by post-elongation at 72° C. for 10 min. […]

TSPYL5 gene [2] = assay: RT-PCR of TSPYL5 expression level after siRNA transduction, H1299; type: cell-based, human; conditions: H1299 cells, 40~80 nM RNAi, compared to siControl
Description: as §1

In the case of “C2-131714: 25mer TSPYL5 stealth-RNAi duplex oligoribonucleotide, SEQ ID Nos: 10 and 11 (chain 1 AAAGGUAGAACUGCAAGGGAUUGGG; chain 2 CCCAAUCCCUUGCAGUUCUACCUUU; Invitrogen Stealth RNAi, modifications not given here)”, the “expression levels of TSPYL5” value (TSPYL5 gene [1]) is reported as “reduced the most effectively” and the “expression levels of TSPYL5” value (TSPYL5 gene [2]) is reported as “reduced the most effectively”.

From US20110111400A1, “METHOD FOR ENHANCING CHEMICAL SENSITIVITY OR RADIOSENSITIVITY OF CANCER CELLS BY INHIBITING EXPRESSION OF TSPYL5” (Korea Atomic Energy Research Institute, priority 2009, published 2011)
